Reference: patent US7395112B2, “Method and apparatus for treating tumors using low strength electric fields” (priority 2002, dated 2008)

Tests used:
[1] = test system: CT-26 colon carcinoma; assay: LEF with chemotherapy (LEFCT-EC) in mice bearing 5 mm CT-26 tumors; assay type: in vivo, BALB/C mice
Protocol: Mice: BALB/C male mice were obtained from the breeding colony of Tel-Aviv University, Israel. Mice were used at 8-12 weeks of age. Animal care and experimentation were performed in accordance with the Tel-Aviv University guidelines.
Tumor: Colon carcinoma tumors were grown in mice with CT-26, a metastatic colon carcinoma cell line induced in a BALB/c mouse by chemical carcinogenesis. Cells were cultured in Dulbecco's modified Eagle's medium (DMEM) supplemented with 100 U/ml penicillin, 100 μg/ml streptomycin, 2 mM L-glutamine; 1 mM sodium pyruvate; 1% non-essential amino acid solution; 10% heat-inactivated fetal calf serum. Cultures were maintained at 37° C. in a humidified incubator with a 5% CO2 atmosphere.
Tumor cell inoculation: Mice were inoculated intracutaneously with 10^5 CT-26 cells suspended in 100 μL PBS into the low lateral side of the back. Local tumor growth was determined by measuring three mutually orthogonal tumor diameters with a caliper. The volume of tumor was calculated using the formula: Vol=D1×D2×D3×π/6, where D1, D2, D3 are three mutually orthogonal tumor diameters.
(§1) Low-strength electric field stimulation: To subject tumors to LEFs, stainless steel needles were used as electrodes. Tumors 5 mm in diameter (about 65 mm^3) were transfixed by electrode needles, with one cathode in the center of the tumor and three or four peripheral anodes. The electrodes were connected to an electric pulse generator and to an oscilloscope. Pulsed LEFs with a repetition frequency of 500 Hz and a pulse width of 180 μs were applied at 20, 40, 60 and 70 V/cm for a duration 12 min or 20 min. The electric pulses were administered 2-4 min following chemotherapeutic drug administration. Mice were anesthetized 10 min before the procedure.
(§2) Chemotherapeutic agents: Bleomycin (Sigma Israel Chemicals Ltd., Israel; Megapharm Ltd., Israel) was kept at a temperature of 2-8° C., and was dissolved in pyrogen-free PBS to a concentration enabling dosages of 50 U/kg body weight prior to use. BCNU was administered at a dosage of 35 mg/kg body weight, and 5-FU (Abic, Israel) was used at a dose of 100 mg/kg body weight.
Anesthesia: Mice were anesthetized using an anesthetic cocktail comprising a dose of imalgen at 100 mg/kg body weight and xylazine hydrochloride at 6.25 mg/kg body weight dissolved in PBS injected intraperitoneally in a volume of 0.25 ml per mouse 10 min prior to LEF treatment.
Statistical analysis: Survival times (Kaplan-Meir test), survival comparisons between groups (Mantel-Cox test), and tumor volume differences between groups were plotted using StatSoft “Statistica” statistical software.
Effect of LEF duration and strength on potentiation of bleomycin for treatment of colon carcinoma: In order to determine the optimal LEFCT-EC/bleomycin therapy for treatment of colon cancer, mice bearing CT-26 tumors were treated with LEFs of 40 V/cm for 12 min, and 20 V/cm for 12 or 20 min with or without administration of bleomycin, and survival was analyzed.

[2] = test system: B16-F10.9 melanoma; assay: LEFCT-EC in mice bearing subcutaneous B16-F10.9 melanoma; assay type: in vivo, C57BL/6 mice; conditions: for Tumor size (mean ± standard error): 7 days after treatment
Protocol: Animals: C57BL/6 male mice were obtained from the breeding colony of Tel-Aviv University, Israel. Mice were used at 8-12 weeks of age. Animal care and experimentation was carried out in accordance with Tel-Aviv University guidelines.
Melanoma tumor cell line: The highly metastatic, poorly immunogenic B16-F10.9 (F10.9) subclone of the B16 melanoma cell line was used to generate melanoma tumors in mice (Eisenbach L. et al., 1984. Int J Cancer 34:567). Cells were maintained in DMEM supplemented with 100 U/ml penicillin, 100 μg/ml streptomycin, 4 mM glutamine, 1 mM sodium pyruvate, 1% non-essential amino acids and 10% heat-inactivated fetal calf serum (FCS); and were cultured at 37° C. in a humidified incubator in an atmosphere of 7% carbon dioxide and 93% air.
Tumor generation protocol: F10.9 tumors were induced in C57BL/6 mice by subcutaneous injection of 2×10^5 F10.9 cells. Mice were subjected to experimental treatments once tumors reached 5 mm in diameter (about 60-70 mm^3). Chemotherapeutic drugs: The following chemotherapeutic drugs used were: cis-platinum (II) diamminedichloride (cisplatin; #P-4394, Sigma, Israel), dissolved in PBS for injections; Taxol (Mead Johnson Oncology Products, A Bristol-Myers Squibb, USA), obtained as a sterile nonpyrogenic solution containing 6 mg/ml paclitaxel, 527 mg/ml of purified Cremophor EL (polyoxyethylated castor oil) and 5-FU (Abic, Israel).
Low-strength electric field enhanced cancer therapy protocol: Mice were subjected to a single treatment of LEFCT-EC, once tumors reached 5 mm in diameter (11-17 days following tumor cell inoculation). Volumes of up to 100 μl of chemotherapeutic agents were injected into tumor loci, and exposures to electric fields were carried out 3-4 min following intratumoral injection of chemotherapeutic agents. To expose tumors to electric fields, stainless steel electrode needles (Karlsbader insect pins No 0. BioQuip Products, USA) soldered at their brassy ends with thin isolated copper wires were used. Electrodes were inserted to a depth of about 7 mm percutaneously into and in the immediate vicinity of the tumor; one cathode needle in the center of the tumor and three peripheral anodes, at a distance of about 5 mm from the cathode. The needles were connected to an electric pulse generator (Grass S48 Stimulator, USA). The field strength applied was about 40 V/cm; the repetition frequency, 500 Hz; and the pulse width, 180 μs. All mice were anesthetized prior to LEF treatment.
Statistical analysis: Statistical analysis of survival times (Kaplan-Meir test), survival comparisons between groups (Mantel-Cox test) and tumor volume differences between groups (Kolmogorov-Smirnov test) were performed using StatSoft Statistica statistical software. The 10-15% mortality rate in the 5 days following LEF or LEF-chemotherapy was considered as treatment-caused, therefore such cases of mortality were excluded.
Tumor volume determination: performed as described above in Example 1 of the Examples section.

[3] = test system: CT-26 colon carcinoma; assay: LEFCT-EC with BCNU in mice bearing large (10 or 15 mm) CT-26 tumors; assay type: in vivo, BALB/C mice; conditions: for time after which all mice were dead: BCNU 35 mg/kg only; for cure rate: LEF 40 V/cm 12 min + BCNU 35 mg/kg
Protocol: as §1, §2
Effect of LEFCT-EC with BCNU on CT-26 development in mice bearing large tumors: In order to examine the effectiveness of LEFCT-EC with BCNU on tumor development in mice with a large tumor burden, mice bearing tumors of 10 mm (about 523 mm^3) or 15 mm in diameter (about 1,760 mm^3). These animals were treated with 4 electrodes placed 7 mm apart.

[4] = test system: CT-26 colon carcinoma; assay: CT-26 cells inoculated with splenocytes from mice cured by LEFCT-EC with BCNU; assay type: in vivo, BALB/C mice; conditions: donors cured by LEFCT-EC with BCNU; tumor cells to splenocytes 1:100
Description: Anti-tumor effect of splenocytes from tumor bearing mice cured by LEFCT-EC with BCNU: In order to examine whether development of resistance against challenge with CT-26 tumors in mice cured of such tumors via LEFCT-EC with BCNU is immunologically mediated, normal mice were inoculated with a dose of CT-26 tumor cells mixed with splenocytes from cured animals. […] Thus, curative LEFCT-EC+BCNU treatment of CT-26 tumor bearing mice induces immunological resistance to subsequent growth of such tumors in such mice.

[5] = test system: CT-26 colon carcinoma
[6] = test system: B16-F10.9 melanoma; assay: Rechallenge with B16-F10.9 cells of mice cured by LEFCT-EC; assay type: in vivo, C57BL/6 mice; conditions: mice cured by LEFCT-EC with the drug, challenged with 2×10^5 B16-F10.9 cells
Description: FIG. 17 is a data plot depicting the cumulative survival of mice previously bearing B16-F10.9 melanoma and cured by LEFCT-EC with cisplatin or taxol following challenge with B16-F10.9 melanoma cells. Mice cured by LEF-chemotherapy that survived for 120-180 days after initial tumor inoculation, were challenged with 2×10^5 B16-F10.9 cells subcutaneously.
Effect of curative LEFCT-EC treatment on generation of anti B16-F10.9 tumor resistance: The resistance of mice cured of B16-F10.9 melanoma by LEF-chemotherapy was analyzed by challenging such cured mice with a tumorigenic dose of B16-F 10.9 melanoma cells.

[7] = LEF-CT (drug + LEF), cisplatin 4 mg/kg, bleomycin 8 U/kg, 5-FU 150 mg/kg, taxol 20 mg/kg
[8] = intratumoral drug injection alone, same doses
[9] = chemotherapy alone, intratumoral, no LEF

For O=c1[nH]cc(F)c(=O)[nH]1 [5-FU, 5-fluorouracil], the “time at which half of the mice were still alive” value ([1]; 5-FU 100 mg/kg intratumoral or intravenous + LEF 40 V/cm 12 min) was 80 days, the “Tumor size (mean ± standard error)” value [2, 7] was 143 ± 52 mm^3 and the “Tumor size (mean ± standard error)” value [2, 8] was 460 ± 54 mm^3.
O=NN(CCCl)C(=O)NCCCl [BCNU] was tested, and the survival rate ([1]; BCNU 35 mg/kg intratumoral + LEF 40 V/cm 12 min, after 52 days, unchanged until day 110) was 83%, the survival ([1]; BCNU + LEF 40 V/cm, comparison with surgery, after about 60 days until about 120 days) was 40% and the cure rate ([1]; LEFCT-EC: drug + LEF 40 V/cm 12 min, 5 mm tumors) was 83%. For the same compound, the “tumor size with drug only relative to drug + LEF” value ([1]; after 21 days) was “about triple the size”, the “time after which half the mice died” value ([1]; drug alone, no LEF, intratumoral injection (5-FU intratumoral or intravenous), 5 mm tumors) was “about 48 days” and the “tumor size with LEFCT-EC + BCNU relative to BCNU alone” value ([3]; 10 mm tumors) was “approximately an order of magnitude smaller”. For the same compound, the “time after which all mice were dead” value ([3]; 10 mm tumors) was 90 days, the “time after which all mice were dead” value ([3]; 15 mm tumors) was 87 days and the cure rate ([3]; 10 mm tumors) was “over 80%”. The cure rate ([3]; 15 mm tumors) was 100%, the survival ([3]; LEF with BCNU, 15 mm tumors, after 100 days) was 100% and the tumor detection ([3]; LEFCT-EC with BCNU, 15 mm tumors, after 42 days) was “no tumors were detected”. The “tumor growth with splenocytes from cured mice” value [4] was “completely prevent growth of tumors”, the “tumor volume of reinoculated mice relative to first-time inoculated mice” value ([5]; after 18 days) was “about one order of magnitude smaller” and the “day by which half of the cured and challenged mice were still alive” value ([5]; mice cured by LEFCT-EC with BCNU, challenged with 10^5 CT-26 cells) was roughly 63 days.
For N.N.[Cl-].[Cl-].[Pt+2] [cisplatin, cis-platinum (II) diamminedichloride], the “Tumor size (mean ± standard error)” value [2, 7] was 83 ± 57 mm^3, the “mean survival time (MST)” value ([2]; LEF-chemotherapy: intratumoral drug + LEF about 40 V/cm 12 min, 120 days (cisplatin) or 180 days (taxol, bleomycin) after inoculation) was 51.1 days and the animals tumor free ([2]; LEF-chemotherapy, 120 days after tumor inoculation) was 13.5%. For the same compound, the “effect of drug alone on survival” value [2, 9] was “no significant effect”, the “mean survival time (MST)” value [2, 9] was 29.5 days and the “Tumor size (mean ± standard error)” value [2, 8] was 1684 ± 204 mm^3. For the same compound, the “LEFCT-EC treated mice that died two months and later after treatment with pulmonary metastatic foci, free of primary tumor” value ([2]; pooled statement for cisplatin, taxol or bleomycin) was “About 10%” and the “MST of challenged mice” value [6] was 48.7 days.
